{"source": "patent US20090017103A1", "about": "“Antisense oligonucleotides for prevention of metastasis formation of cancer cells” (priority 2003, published 2009)", "key": {"[1]": {"test_system": "MDA-MB-231 breast cancer cells", "experiment": "Clonogenicity assay (colony formation)", "assay_type": "cell-based, human", "settings": "for inhibition of colony formation (colony growth inhibition): single exposure; for reduction of colony counts: twofold exposure", "summary_of_the_method": "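MDA-MB-231 cells given lipofectamine-complexed ASO (5, 10 or 20 μM, 12 h) and/or ErPC3 (10, 14, 20 μM, 24 h), singly or in sequential cycles, then grown 48-72 h. 5000 cells plated in methylcellulose/30% FBS; MTT-stained colonies (≥30 cells) counted after 5-7 days.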"}, "MDA-MB-231^GFP cells [2]": {"test_system": "MDA-MB-231^GFP cells", "experiment": "In vivo treatment with mini-osmotic pumps (osteolytic bone metastasis model);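 on Size of lesion (per animal): lesion size in relative units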", "parameters": "species or system nude rats", "settings": "for X-ray scan of hind legs: lytic lesions (in words): FIG. 5-7; for T/C / Mean size of lesion / Size of lesion (per animal): mini-osmotic pumps; for T/C: vs NSO control; for T/C × 100: mean lesion size vs NSO control rats; for Incidence of metastasis: mini-osmotic pumps s.c., 7 mg/kg daily over four weeks"}, "MDA-MB-231^GFP cells [3]": {"test_system": "MDA-MB-231^GFP cells", "experiment": "In vivo model with pretreated MDA-MB-231^GFP cells (osteolytic bone metastasis)", "parameters": "species or system nude rats; lesion size of the rat(s) that developed lytic metastasis, % of control / lesion sizes with respect to all animals of the group compared to untreated control / lesion size of individual animal compared to the untreated control / T/C % (mean lesion size compared to untreated control): concentration or dose not given beside the values", "settings": "for T/C × 100: mean lesion size vs untreated control rats; for Incidence of metastasis: cells pretreated in vitro (10 μM)"}}, "note": "Values joined by “and” are separate entries in the source; they are usually repeats but may differ in a detail not shown here. Equal values may be shown once. “Also recorded” adds a separate entry of the source. Marks after values point to notes of the source that are not given here."}
{"substance": "5′-CTAACTTAAAAAACAAAAGA-3′ (antisense CTAACTTAAAAAACAAAAGA; all phosphorothioate, sugars by position and methylation of C not given here) [ASO-OPN-4]", "values": [{"measurement": "% Control", "setting": "[1]; Exp. III a, repeated exposure 2 × 5 μM", "result": 84, "unit": "%"}, {"measurement": "Mean colony no.", "setting": "[1]; Exp. III a, repeated exposure 2 × 5 μM, control 456", "result": "381^6,8)"}, {"measurement": "% Control", "setting": "[1]; Exp. III a, repeated exposure 2 × 10 μM", "result": 51, "unit": "%"}, {"measurement": "Mean colony no.", "setting": "[1]; Exp. III a, repeated exposure 2 × 10 μM, control 456", "result": "233^7,8)"}, {"measurement": "% Control", "setting": "[1]; Exp. III a, repeated exposure 2 × 20 μM", "result": 40, "unit": "%"}, {"measurement": "Mean colony no.", "setting": "[1]; Exp. III a, repeated exposure 2 × 20 μM, control 456", "result": "181^7)"}, {"measurement": "% Control", "setting": "[1]; Experiment I, single treatment, 5 μM", "result": 85, "unit": "%"}, {"measurement": "Mean colony no.", "setting": "[1]; Experiment I, single treatment, 5 μM, control 778", "result": "658^6)"}, {"measurement": "% Control", "setting": "[1]; Experiment I, single treatment, 10 μM", "result": 61, "unit": "%"}, {"measurement": "Mean colony no.", "setting": "[1]; Experiment I, single treatment, 10 μM, control 778", "result": "475^7)"}, {"measurement": "% Control", "setting": "[1]; Experiment I, single treatment, 20 μM", "result": 53, "unit": "%"}, {"measurement": "Mean colony no.", "setting": "[1]; Experiment I, single treatment, 20 μM, control 778", "result": 416}, {"measurement": "% Control", "setting": "[1]; Experiment III b, repeated exposure 2 × 5 μM", "result": 63, "unit": "%"}, {"measurement": "Mean colony no.", "setting": "[1]; Experiment III b, repeated exposure 2 × 5 μM, control 517", "result": "330^6,8)"}, {"measurement": "% Control", "setting": "[1]; Experiment III b, repeated exposure 2 × 10 μM", "result": 57, "unit": "%"}, {"measurement": "Mean colony no.", "setting": "[1]; Experiment III b, repeated exposure 2 × 10 μM, control 517", "result": "296^7,8)"}, {"measurement": "% Control", "setting": "[1]; Experiment III b, repeated exposure 2 × 20 μM", "result": 50, "unit": "%"}, {"measurement": "Mean colony no.", "setting": "[1]; Experiment III b, repeated exposure 2 × 20 μM, control 517", "result": "258^8)"}, {"measurement": "inhibition of colony formation (colony growth inhibition)", "setting": "[1]; 5 μM", "result": 15, "unit": "%"}, {"measurement": "inhibition of colony formation (colony growth inhibition)", "setting": "[1]; 10 μM", "result": 39, "unit": "%"}, {"measurement": "inhibition of colony formation (colony growth inhibition)", "setting": "[1]; 20 μM, listed as ASO-OPN-04, 20 µM", "result": "47% and 46%"}, {"measurement": "reduction of colony counts", "setting": "[1]; 5 μM", "result": 16, "unit": "%"}, {"measurement": "reduction of colony counts", "setting": "[1]; 20 μM", "result": 60, "unit": "%"}, {"measurement": "repeated exposure compared with single exposure, colony formation (in words)", "setting": "[1]; twofold vs single ASO exposure", "result": "more effective than single exposure"}, {"measurement": "X-ray scan of hind legs: lytic lesions (in words)", "setting": "MDA-MB-231^GFP cells [2]; eight weeks after tumor cell implantation", "result": "clear increase of lytic lesions in the tibia, however new formation of bone tissue at the edges of the lesions"}, {"measurement": "X-ray scan of hind legs: lytic lesions (in words)", "setting": "MDA-MB-231^GFP cells [2]; four weeks after tumor cell implantation, therapy from implantation", "result": "small lytic lesions in the tibia"}, {"measurement": "X-ray scan of hind legs: lytic lesions (in words)", "setting": "MDA-MB-231^GFP cells [2]; six weeks after tumor cell implantation", "result": "visible lytic lesions in the tibia"}, {"measurement": "X-ray scan of hind legs: lytic lesions (in words)", "setting": "MDA-MB-231^GFP cells [2]; ten weeks after tumor cell implantation", "result": "a decrease of the lesions is clearly visible"}, {"measurement": "T/C", "setting": "MDA-MB-231^GFP cells [2]; week 4", "result": 58, "unit": "%"}, {"measurement": "T/C", "setting": "MDA-MB-231^GFP cells [2]; week 12", "result": 26, "unit": "%"}, {"measurement": "T/C × 100", "setting": "MDA-MB-231^GFP cells [2]; week 4", "result": 58}, {"measurement": "Mean size of lesion", "setting": "MDA-MB-231^GFP cells [2]; week 4", "result": 19, "unit": "R.U."}, {"measurement": "Size of lesion (per animal)", "setting": "MDA-MB-231^GFP cells [2]; week 4", "result": "20 R.U. and 41 R.U. and 0 R.U. (2×) and 34 R.U."}, {"measurement": "Incidence of metastasis", "setting": "MDA-MB-231^GFP cells [2]; week 4, 7 mg/kg", "result": "three out of five and 3/5"}, {"measurement": "T/C × 100", "setting": "MDA-MB-231^GFP cells [2]; week 6", "result": 41}, {"measurement": "Mean size of lesion", "setting": "MDA-MB-231^GFP cells [2]; week 6", "result": 73, "unit": "R.U."}, {"measurement": "Size of lesion (per animal)", "setting": "MDA-MB-231^GFP cells [2]; week 6", "result": "35 R.U. and 285 R.U. and 0 R.U. (2×) and 46 R.U."}, {"measurement": "Incidence of metastasis", "setting": "MDA-MB-231^GFP cells [2]; week 6", "result": "3/5"}, {"measurement": "T/C × 100", "setting": "MDA-MB-231^GFP cells [2]; week 8", "result": 45}, {"measurement": "Mean size of lesion", "setting": "MDA-MB-231^GFP cells [2]; week 8", "result": 124, "unit": "R.U."}, {"measurement": "Size of lesion (per animal)", "setting": "MDA-MB-231^GFP cells [2]; week 8", "result": "117 R.U. and 415 R.U. and 27 R.U. and 60 R.U. and 0 R.U."}, {"measurement": "Incidence of metastasis", "setting": "MDA-MB-231^GFP cells [2]; week 8", "result": "4/5"}, {"measurement": "T/C × 100", "setting": "MDA-MB-231^GFP cells [2]; week 9", "result": 48}, {"measurement": "Mean size of lesion", "setting": "MDA-MB-231^GFP cells [2]; week 9", "result": 134, "unit": "R.U."}, {"measurement": "Size of lesion (per animal)", "setting": "MDA-MB-231^GFP cells [2]; week 9", "result": "435 R.U. and 123 R.U. and 53 R.U. and 57 R.U. and 0 R.U."}, {"measurement": "Incidence of metastasis", "setting": "MDA-MB-231^GFP cells [2]; week 9", "result": "4/5"}, {"measurement": "T/C × 100", "setting": "MDA-MB-231^GFP cells [2]; week 10", "result": 29}, {"measurement": "Mean size of lesion", "setting": "MDA-MB-231^GFP cells [2]; week 10", "result": 124, "unit": "R.U."}, {"measurement": "Size of lesion (per animal)", "setting": "MDA-MB-231^GFP cells [2]; week 10", "result": "74 R.U. and 67 R.U. and 45 R.U. and 0 R.U."}, {"measurement": "Incidence of metastasis", "setting": "MDA-MB-231^GFP cells [2]; week 10", "result": "4/5"}, {"measurement": "T/C × 100", "setting": "MDA-MB-231^GFP cells [2]; week 12", "result": 26}, {"measurement": "Mean size of lesion", "setting": "MDA-MB-231^GFP cells [2]; week 12", "result": 112, "unit": "R.U."}, {"measurement": "Size of lesion (per animal)", "setting": "MDA-MB-231^GFP cells [2]; week 12", "result": "31 R.U. (2×) and 64 R.U. and 0 R.U."}, {"measurement": "Incidence of metastasis", "setting": "MDA-MB-231^GFP cells [2]; week 12", "result": 3}, {"measurement": "T/C × 100", "setting": "MDA-MB-231^GFP cells [3]; 4 weeks", "result": 3.9}, {"measurement": "T/C × 100", "setting": "MDA-MB-231^GFP cells [3]; 6 weeks", "result": 3.8}, {"measurement": "T/C × 100", "setting": "MDA-MB-231^GFP cells [3]; 8 weeks", "result": 4.3}, {"measurement": "X-ray scan of hind legs: osteolytic lesions (in words)", "setting": "MDA-MB-231^GFP cells [3]; FIG. 3 and FIG. 4, one rat each, cells pre-exposed, listed as ASO-OPN-04", "result": "no osteolysis; also recorded: no visible lytic lesions"}, {"measurement": "rats in which formation of osteolytic metastasis was inhibited (no visible metastasis)", "setting": "MDA-MB-231^GFP cells [3]; cells pre-exposed to ASO, observation period of eight weeks, listed as ASO-OPN-04", "result": "Three of four and 3 of 4"}, {"measurement": "Incidence of metastasis", "setting": "MDA-MB-231^GFP cells [3]; observation period 4 weeks", "result": "1/4"}, {"measurement": "Mean size of lesion", "setting": "MDA-MB-231^GFP cells [3]; observation period 4 weeks, pretreated cells", "result": 8.5, "unit": "R.U."}, {"measurement": "Incidence of metastasis", "setting": "MDA-MB-231^GFP cells [3]; observation period 6 weeks", "result": "1/4"}, {"measurement": "Mean size of lesion", "setting": "MDA-MB-231^GFP cells [3]; observation period 6 weeks, pretreated cells", "result": 11.5, "unit": "R.U."}, {"measurement": "Incidence of metastasis", "setting": "MDA-MB-231^GFP cells [3]; observation period 8 weeks", "result": "1/4^4)"}, {"measurement": "Mean size of lesion", "setting": "MDA-MB-231^GFP cells [3]; observation period 8 weeks, pretreated cells", "result": 15, "unit": "R.U."}, {"measurement": "T/C % (mean lesion size compared to untreated control)", "setting": "MDA-MB-231^GFP cells [3]; pretreated cells, after eight weeks", "result": 4.3, "unit": "%"}, {"measurement": "lesion sizes with respect to all animals of the group compared to untreated control", "setting": "MDA-MB-231^GFP cells [3]; pretreated cells, over observation period week 4 to week 8", "result": "about 4%"}, {"measurement": "lesion sizes of the one metastasis-bearing animal compared to the control", "setting": "MDA-MB-231^GFP cells [3]; pretreated cells, overall observation period (8 weeks)", "result": "about 16%"}, {"measurement": "lesion size of the rat(s) that developed lytic metastasis", "setting": "MDA-MB-231^GFP cells [3]; pretreated cells, week 4", "result": 34, "unit": "R.U."}, {"measurement": "lesion size of the rat(s) that developed lytic metastasis, % of control", "setting": "MDA-MB-231^GFP cells [3]; pretreated cells, week 4, vs mean of the two control groups (197 R.U.)", "result": 17, "unit": "%"}, {"measurement": "lesion size of the rat(s) that developed lytic metastasis", "setting": "MDA-MB-231^GFP cells [3]; pretreated cells, week 8", "result": 60, "unit": "R.U."}, {"measurement": "lesion size of the rat(s) that developed lytic metastasis, % of control", "setting": "MDA-MB-231^GFP cells [3]; pretreated cells, week 8, vs mean of the two control groups (416 R.U.)", "result": 17, "unit": "%"}]}
